# Test system: Plasmodium falciparum Dd2 asexual blood stage parasites
# Assay: microbe, parasite or virus in culture
# Parameters: species or system Plasmodium falciparum Dd2 in human erythrocytes; single determination (one 11-point concentration-response curve)
# Settings: Plasmodium falciparum, DD2, Erythrocyte, 72 h; read-out: AC50
row,SMILES,AC50
1,COc1ccc(CN2CC(Oc3ccccc3C(=O)NCc3ccccc3)C2)c(OC)c1 [NCGC00458086-01],10.6 µM
2,COc1ccc(OC)c(CN2CC(Oc3ccccc3C(=O)NCc3ccccc3)C2)c1 [NCGC00458087-01],13.3 µM
3,O=C(NCc1ccccc1)c1ccccc1OC1CN(Cc2ccc(O)c(F)c2)C1 [NCGC00458090-01],15 µM
4,Cc1c(CN2CC(Oc3ccccc3C(=O)NCc3ccccc3)C2)cnn1C [NCGC00458092-01],4.22 µM
5,c1ccc(-c2nc(-c3ccncc3)no2)c(OC2CCN(C3CCCC3)C2)c1 (stereo not shown) [NCGC00458106-01],15 µM
6,O=C(c1ccccc1)N1CCC(Cc2nnc(-c3ccncc3)[nH]2)CC1 [NCGC00458326-01],15 µM
7,Cc1ccc(OCc2nc(C3CCN(C(=O)c4c5c(nc6ccccc46)CCCC5)CC3)no2)cc1 [NCGC00459905-01],9.44 µM
8,COc1cccc(C(=O)N2CCC(N3C[C@H](O)C[C@H]3C(=O)N3CCc4ccccc4C3)CC2)c1 [NCGC00460061-01],8.41 µM
9,COc1cccc(C(=O)N2CCC(N3C[C@H](O)C[C@H]3C(=O)N3CC=C(c4ccccc4)CC3)CC2)c1 [NCGC00460071-01],9.44 µM
10,COc1ccc(CN2CC3(CCN(C(=O)Nc4ccc(OC)c(F)c4)CC3)C2=O)cc1 [NCGC00460264-01],10.6 µM
11,O=C(c1n[nH]c2ccccc12)N1CCCC1c1nc(CCOCC2CCOCC2)no1 (stereo not shown) [NCGC00460318-01],9.44 µM
12,O=[S+]([O-])(c1cccnc1)N1CCC2(CC1)NCCc1c2[nH]c2ccccc12 [NCGC00460719-01],16.8 µM
13,Cc1ccc(NC(=O)N2CCC(N3C(=O)C4(CCCCC4)C3c3ccncc3)CC2)cc1C (stereo not shown) [NCGC00461123-01],7.5 µM
14,COCC1CN(Cc2cccc(C(F)(F)F)c2)CC12CCNCC2 (stereo not shown) [NCGC00461834-01],7.5 µM
15,COCC1CN(Cc2cc(F)cc(Br)c2)CC12CCNCC2 (stereo not shown) [NCGC00461842-01],9.44 µM
16,COCC1CN(Cc2cccc(OC(F)(F)F)c2)CC12CCNCC2 (stereo not shown) [NCGC00461844-01],15 µM
17,COCC1CN(C)CC12CCN([S+](=O)([O-])c1ccc(F)c(Cl)c1)CC2 (stereo not shown) [NCGC00461939-01],13.3 µM
18,CN(C)C[C@@H]1CN(C)C[C@H]1N[S+](=O)([O-])c1ccc(Br)cc1 [NCGC00462726-01],13.3 µM
19,Cc1ccc([S+](=O)([O-])N[C@@H]2CN(C)C[C@H]2CN(C)C)cc1F [NCGC00462728-01],15 µM
20,COC1C(=O)N(c2cccc(F)c2)C12CCNCC2 (stereo not shown) [NCGC00463379-01],10.6 µM
21,Fc1cccc(CN2CCC(N3CC(OCC4CC4)C34CCCCC4)CC2)c1 (stereo not shown) [NCGC00463410-01],4.22 µM
22,Cn1cccc1CN1CCC(N2CC(OCC3CC3)C23CCCCC3)CC1 (stereo not shown) [NCGC00463411-01],7.5 µM
23,COc1cccc(CN2CCC(N3CC(OCC4CC4)C34CCCCC4)CC2)n1 (stereo not shown) [NCGC00463412-01],4.22 µM
24,CCn1cc(CN2CCC(N3CC(OCC4CC4)C34CCCCC4)CC2)cn1 (stereo not shown) [NCGC00463414-01],8.41 µM
25,CC(C)[S+](=O)([O-])N1CCC(N2CC(OCC3CC3)C23CCCCC3)CC1 (stereo not shown) [NCGC00463417-01],15 µM
26,CCCn1c(C)cnc1CC1CCN([S+](=O)([O-])c2ccc3c(c2)CCC3)C1 (stereo not shown) [NCGC00464176-01],9.44 µM
27,Cc1cnc(C2CCC2)n1C1CCCN(C(=O)CCCc2ccccc2)C1 (stereo not shown) [NCGC00464236-01],15 µM

row,SMILES,AC50
1,O=C(NCCc1c[nH]c2ccccc12)[C@@H]1C[C@H]2C(=O)NCCCCCCN(C(=O)c3ccco3)[C@H]2C1 [NCGC00465014-01],10.6 µM
2,COc1ccc2c(c1)c(CN1CCCCCCN(C)C(=O)[C@@H]3CCC[C@@H]31)cn2C [NCGC00465190-01],15 µM
3,COc1ccc(CN2CCCCCNC(=O)CC2c2ccccc2)cc1Cn1ccnc1 (stereo not shown) [NCGC00465444-01],9.44 µM
4,O=C1CC(c2ccccc2)N(C(=O)CNC(=O)c2ccc3[nH]ccc3c2)CCCCCN1 (stereo not shown) [NCGC00465493-01],15 µM
5,COC1CN(c2ccc(C)cc2)C12CCN(C(=O)CCc1nc3ccccc3s1)CC2 (stereo not shown) [NCGC00465628-01],10.6 µM
6,N#Cc1cccc(C(=O)N2CCCN(Cc3ccncc3)C(c3ccccc3)CC(=O)NCC2)c1 (stereo not shown) [NCGC00467150-01],7.5 µM
7,Cc1ccc(CN2CCCN(Cc3ccncc3)C(c3ccccc3)CC(=O)NCC2)o1 (stereo not shown) [NCGC00467180-01],7.5 µM
8,Cc1ccc(CN2CCCN(Cc3ccncc3)C(c3ccccc3)CC(=O)NCC2)s1 (stereo not shown) [NCGC00467183-01],2.66 µM
9,Cc1cccc(CN2CCCN(Cc3ccncc3)C(c3ccccc3)CC(=O)NCC2)c1 (stereo not shown) [NCGC00467184-01],4.22 µM
10,COc1cccc(CN2CCCN(Cc3ccncc3)C(c3ccccc3)CC(=O)NCC2)c1 (stereo not shown) [NCGC00467185-01],7.5 µM
11,Cc1ncsc1CN1CCCN(Cc2ccncc2)C(c2ccccc2)CC(=O)NCC1 (stereo not shown) [NCGC00467186-01],8.41 µM
12,O=C1CC(c2ccccc2)N(Cc2ccncc2)CCCN(C(=O)Nc2ccccc2F)CCN1 (stereo not shown) [NCGC00467191-01],1.68 µM
13,O=C1CC(c2ccccc2)N(Cc2ccncc2)CCCN([S+](=O)([O-])c2cccs2)CCN1 (stereo not shown) [NCGC00467201-01],6.68 µM
14,O=C1CC(c2ccccc2)N(Cc2ccncc2)CCCN([S+](=O)([O-])c2cccc(F)c2)CCN1 (stereo not shown) [NCGC00467202-01],4.73 µM
15,Cc1noc(C)c1[S+](=O)([O-])N1CCCN(Cc2ccncc2)C(c2ccccc2)CC(=O)NCC1 (stereo not shown) [NCGC00467205-01],7.5 µM
16,Cc1ccc(CN2CC[C@@H]3C(=O)NCCCCCCN(Cc4ccncc4)[C@@H]3C2)o1 [NCGC00467213-01],2.11 µM
17,N#Cc1ccc(CN2CC[C@@H]3C(=O)NCCCCCCN(Cc4ccncc4)[C@@H]3C2)cc1 [NCGC00467216-01],10.6 µM
18,O=C1CC(c2ccccc2)N(C(=O)CNC(=O)c2n[nH]c3c2CCc2ccccc2-3)CCCCCCN1 (stereo not shown) [NCGC00467449-01],2.99 µM
19,Cn1cccc1CN1C[C@@H](COc2ccncc2)[C@H](c2ccccn2)C1 [NCGC00468708-01],13.3 µM
20,CCN(CC)c1cc(CCC(=O)NCCN(C)C2CCCCC2)ccn1 [NCGC00469386-01],13.3 µM
21,Cc1cnc(CC2CCCN([S+](=O)([O-])c3ccccc3)C2)n1CC1CC1 (stereo not shown) [NCGC00469674-01],6.68 µM
22,CCCn1c(C)cnc1CC1CCCN([S+](=O)([O-])c2cc(OC)ccc2OC)C1 (stereo not shown) [NCGC00469684-01],10.6 µM
23,Cc1ccc(CN2CCCC(Cc3ncc(C)n3Cc3ccccc3)C2)o1 (stereo not shown) [NCGC00469705-01],9.44 µM
24,Cc1cc(C(F)(F)F)nn1CC(=O)NCCc1ncc(C)n1CC1CC1 [NCGC00469801-01],10.6 µM
25,O=C(NCc1ccc(N2CCCC2)cc1)C1CCCN(c2cnn(Cc3ccccc3)c(=O)c2)C1 (stereo not shown) [NCGC00470327-01],10.6 µM
26,Fc1cccc(CC2CCOC3(CCNCC3)C2)c1 (stereo not shown) [NCGC00470522-01],13.3 µM
27,Cc1ccc(NC(=O)Cn2c(-c3ccccc3)nc(C)c(CCO)c2=O)cc1Cl [NCGC00470911-01],10.6 µM

row,SMILES,AC50
1,Cc1nc(-c2ccccc2)n(CC(=O)Nc2ccc(Cl)cc2)c(=O)c1CCO [NCGC00470932-01],16.8 µM
2,Cc1nc(-c2ccc(F)cc2)n(CC(=O)Nc2cccc(Cl)c2)c(=O)c1CCO [NCGC00470975-01],15 µM
3,CSc1cccc(NC(=O)Cn2c(-c3ccc(F)cc3)nc(C)c(CCO)c2=O)c1 [NCGC00470986-01],13.3 µM
4,Cc1nc(-c2cccc(Cl)c2)n(CC(=O)Nc2ccc(C(F)(F)F)cc2)c(=O)c1CCO [NCGC00471081-01],13.3 µM
5,O=C(Cc1ccccc1F)N1CCOc2ccc(CN3CCc4ccccc4C3)cc2C1 [NCGC00471206-01],13.3 µM
6,O=C(Nc1ccc(F)cc1)N1CCOc2ccc(CN3CCc4ccccc4C3)cc2C1 [NCGC00471233-01],8.41 µM
7,O=C(Nc1ccc(F)cc1F)N1CCOc2ccc(CN3CCc4ccccc4C3)cc2C1 [NCGC00471236-01],16.8 µM
8,Cc1ccc(CN2CCc3oc(C)c(C(=O)NCCN4CCCCC4)c3C2)cc1 [NCGC00471970-01],10.6 µM
9,CCC1(N2CCN(C)CC2)CCN([S+](=O)([O-])c2ccccc2)C1 (stereo not shown) [NCGC00472095-01],6.68 µM
10,CCN(CC)CCNC(=O)C12CCCC=C1N(Cc1ccccc1)C(=O)CC2 (stereo not shown) [NCGC00472142-01],8.41 µM
11,CC(C)CCN1CCC(N2CCN([S+](=O)([O-])c3ccc4c(c3)CCCC4)CC2)C1=O (stereo not shown) [NCGC00472995-01],9.44 µM
12,CC(=O)Oc1c(-c2ccc(NC(=O)CC(C)C)cc2)c(-c2ccc(F)cc2)nn1-c1ccc(F)cc1 [NCGC00473192-01],13.3 µM
13,COc1ccc(-c2nn(-c3ccc(F)cc3)c(OC(C)=O)c2-c2ccc(NC(C)=O)cc2)cc1OC [NCGC00473193-01],15 µM
14,CC(C)CNC(=O)CN1CN(c2ccccc2)C2(CCN(C(=O)NC3CCCCC3)CC2)C1=O [NCGC00473208-01],15 µM
15,CCC1=C(C(=O)OC)C(c2cccc(F)c2)N2C(CC(=O)NCCc3cccs3)=CSC2=N1 (stereo not shown) [NCGC00473313-01],9.44 µM
16,COc1ccc(CCNC(=O)CC(c2ccccc2OC)c2c[nH]c3ccccc23)cc1OC (stereo not shown) [NCGC00473331-01],13.3 µM
17,CCC1=C(C(=O)OC)C(c2ccccc2OC)N2C(CC(=O)NCC3CCCO3)=CSC2=N1 (stereo not shown) [NCGC00473341-01],15 µM
18,O=C(CC(c1ccc(F)cc1)c1cn(Cc2ccccc2)c2ccc([N+](=O)[O-])cc12)N1CCOCC1 (stereo not shown) [NCGC00473380-01],9.44 µM
19,CCc1cccc2c(C(CC(=O)N3CCC(C)CC3)c3cccc(C)c3)c[nH]c12 (stereo not shown) [NCGC00473418-01],4.73 µM
20,COc1ccc(CCN(C)C(=O)CC(c2cccc(F)c2)c2cn(C)c3ccccc23)cc1OC (stereo not shown) [NCGC00473446-01],8.41 µM
21,CCCCCCNC(=O)Cc1csc2nc(C)c(-c3cc(C)n(-c4cccc(C)c4)n3)c(=O)n12 [NCGC00473470-01],15 µM
22,O=C(c1nc(-c2cccc(C(F)(F)F)c2)c2cnccn12)N1CCCC1 [NCGC00476432-01],10.6 µM
23,O=C(NCc1cccs1)c1nc(-c2cccc(C(F)(F)F)c2)c2cnccn12 [NCGC00476439-01],9.44 µM
24,CC(C)CNC(=O)c1nc(-c2ccc(Cl)cc2)c2cnccn12 [NCGC00476461-01],8.63 µM
25,N#CC1CCN(C(=O)c2nc(-c3cccc(C(F)(F)F)c3)c3cnccn23)CC1 [NCGC00476479-01],16.8 µM

# From article PMC7822874, “Chemoprotective antimalarials identified through quantitative high-throughput screening of Plasmodium blood and liver stage parasites” (Scientific Reports, 2021)
